# According to ChEMBL document CHEMBL5346936, “Functionalized sulfonyl anthranilic acid derivatives inhibit replication of all the four dengue serotypes” (Eur J Med Chem, 2023):
# Calls of active or inactive are those of the source. The rule behind the calls is not given here.
# Tests used:
# [1] = Cytotoxicity against human Huh-7 cells treated for 48 hrs measured by celltitre-glo luminescent assay; type: toxicity, cell-based
# [2] = system: dengue virus type 2; test: Antiviral activity against DENV-2 EDEN 3295 infected in 10^5 human Huh-7 cells at 0.3 MOI for 1 hr followed by compound treatment for 48 hrs; type: functional, organism-based; settings: EDEN 3295, Huh-7
# [3] = system: dengue virus type 2; test: Inhibition of DENV-2 NS5 polymerase incubated for 1 hr measured at 30 uM by fluorescence based alkaline phosphate coupled polymerase assay
# [4] = system: dengue virus type 2; test: Antiviral activity against DENV-2 EDEN 3295 infected in 10^5 human Huh-7 cells at 0.3 MOI for 1 hr followed by compound treatment at 10 uM for 48 hrs relative to control; type: functional
# [5] = Selectivity index, ratio of CC50 for human Huh-7 cells to EC50 for antiviral activity against DENV-2 EDEN 3295; type: toxicity; settings: read-out: Ratio CC50/EC50
# [6] = (§1) Inhibition of DENV-2 NS5 polymerase incubated for 1 hr measured by fluorescence based alkaline phosphate coupled polymerase assay; parameters: species or system dengue virus type 2
# [7] = system: dengue virus type 2; test: Antiviral activity against DENV-2 infected in human Huh-7 cells at MOI 1 assessed as reduction of intracellular viral titre at 10 uM measured after 24 hrs post infection by RT-PCR analysis; type: functional, organism-based
# [8] = Cytotoxicity against human Calu-1 cells; type: toxicity, cell-based
# [9] = system: dengue virus type 2; test: Antiviral activity against DENV-2 infected in human Huh-7 cells assessed as reduction of viral protein NS5 expression at 10 uM for 12 hrs post infection by RT-PCR analysis; type: functional, organism-based
# [10] = system: dengue virus type 2; test: Antiviral activity against DENV-2 infected with human Calu-1 cells; type: functional, organism-based
# [11] = Cytotoxicity against green monkey Vero cells; type: toxicity, cell-based; settings: chlorocebus sabaeus
# [12] = system: dengue virus type 2; test: Antiviral activity against DENV-2 infected in human Huh-7 cells at MOI 1 assessed as reduction of intracellular viral titre at 10 uM measured after 2 hrs post infection by RT-PCR analysis; type: functional, organism-based
# [13] = system: dengue virus type 2; test: Antiviral activity against DENV-2 infected in human Huh-7 cells at MOI 1 assessed as log reduction of intracellular viral titre at 10 uM measured after 60 hrs post infection by RT-PCR analysis; type: functional
# [14] = system: dengue virus type 2; test: Antiviral activity against DENV-2 infected with asian tiger mosquito C6/36 cells; type: functional, organism-based
# [15] = system: dengue virus type 2; test: Antiviral activity against DENV-2 infected in human Huh-7 cells assessed as reduction of viral protein NS3 expression at 10 uM for 12 hrs post infection by RT-PCR analysis; type: functional, organism-based
# [16] = Cytotoxicity against human Huh-7 cells; type: toxicity, cell-based
# [17] = Cytotoxicity against human A549 cells; type: toxicity, cell-based
# [18] = system: dengue virus type 2; test: Antiviral activity against DENV-2 infected with hamster BHK-21 cells; type: functional, organism-based
# [19] = system: dengue virus type 2; test: Antiviral activity against DENV-2 infected in human Huh-7 cells at MOI 1 assessed as reduction of intracellular viral titre at 10 uM during infection measured after 48 hrs measured by RT-PCR analysis; type: functional, organism-based
# [20] = Cytotoxicity against hamster BHK-21 cells; type: toxicity, cell-based, Mesocricetus auratus
# [21] = system: dengue virus type 2; test: Antiviral activity against DENV-2 infected in human Huh-7 cells at MOI 1 assessed as reduction of intracellular viral titre at 10 uM, 2 hr prior to infection measured after 48 hrs measured by RT-PCR analysis; type: functional, organism-based; settings: time 50.0 hrs
# [22] = system: dengue virus type 2; test: Antiviral activity against DENV-2 infected with green monkey Vero cells; type: functional, organism-based
# [23] = system: dengue virus type 2; test: as §1
# [24] = Cytotoxicity against asian tiger mosquito C6/36 cells; type: toxicity, cell-based; settings: aedes albopictus
# [25] = system: dengue virus type 2; test: Antiviral activity against DENV-2 infected with human A549 cells; type: functional, organism-based
Compound,EC50 [2] [µM],CC50 at 48 h [1] [µM],Activity [4] [%],selectivity ratio [5],also measured
CS(=O)(=O)Nc1ccc(Oc2cccc(Br)c2)cc1C(=O)NCc1ccc(F)c(F)c1,42.6,40.3,,,inhibition [3]: inactive
O=C(NCc1ccccc1)c1cc(Oc2cccc(Br)c2)ccc1NS(=O)(=O)c1cccs1,,,0,,
CS(=O)(=O)Nc1ccc(Oc2cccc(Br)c2)cc1C(=O)NCc1ccccc1,47.5,66.4,,1.39,inhibition [3]: inactive
CCc1cccc(Oc2ccc(NS(C)(=O)=O)c(C(=O)NCc3ccc(F)c(F)c3)c2)c1,33.9,41.1,,1.21,inhibition [3]: inactive
COc1ccc(CNC(=O)c2cc(Oc3cccc(Br)c3)ccc2NS(C)(=O)=O)cc1OC,48.8,100,,2.05,inhibition [3]: inactive
CCc1cccc(Oc2ccc(NS(C)(=O)=O)c(C(=O)NCc3ccccc3)c2)c1,44.9,78.6,,1.75,inhibition [3]: inactive
O=C(NCc1ccccc1)c1cc(Oc2cccc(Br)c2)ccc1NS(=O)(=O)N1CCOCC1,,,0,,
COc1ccc(CNC(=O)c2cc(Oc3cccc(Br)c3)ccc2NS(=O)(=O)c2cccc3cccnc23)cc1OC,,,50,,
O=C(OC1=CS(=O)(=O)Nc2ccc(Oc3ccccc3Br)cc21)c1ccc(F)c(F)c1,,,,,IC50 [6]: 18.4 µM
O=C(NCc1ccccc1)c1cc(OCC2CCCCC2)ccc1NS(=O)(=O)c1cccc2cccnc12,,,45,,
COc1ccc(C(=O)NCc2ccccc2)c(NS(=O)(=O)c2cccc3cccnc23)c1,,,0,,
O=C(NCc1ccccc1)c1cc(Oc2cccc(Br)c2)ccc1NS(=O)(=O)c1cccnc1,,,12.5,,
CCCOc1cc(C(=O)NCc2ccccc2)ccc1NS(=O)(=O)c1cccc2cccnc12,,,0,,
CCCOc1ccc(NS(=O)(=O)c2cccc3cccnc23)c(C(=O)NCc2ccccc2)c1,,> 100,,,Activity [7]: Active; CC50 [8]: > 100 µM; Activity [9]: Active; EC50 [10]: 0.18 µM; CC50 [11]: > 25 µM; Activity [12]: Active; log(activity) [13]: 3; EC50 [14]: > 10 µM; Activity [15]: Active; CC50 [16]: > 100 µM; CC50 [17]: > 100 µM; EC50 [18]: 20 µM; Activity [19]: inactive; CC50 [20]: > 25 µM; Activity [21]: inactive; EC50 [22]: 1.09 µM; inhibition [23]: inactive; CC50 [24]: > 100 µM; EC50 [25]: 1.38 µM
CCCOc1ccc(NS(=O)(=O)c2cccc3ccccc23)c(C(=O)NCc2ccccc2)c1,,,0,,
O=C(NCc1ccccc1)c1ccccc1NS(=O)(=O)c1cccc2cccnc12,,,0,,
CCCOc1ccc(NS(=O)(=O)c2cccc3cccnc23)c(C(=O)N(CC)Cc2ccccc2)c1,,,25,,
O=C(NCc1ccccc1)c1cc(F)ccc1NS(=O)(=O)c1cccc2cccnc12,,,0,,
O=C(NCc1ccccc1)c1cc(Oc2cccc(Br)c2)ccc1NS(=O)(=O)c1ccc2c(c1)CCO2,,,32.5,,
CCCOc1ccc(NS(=O)(=O)c2cccc3cccnc23)c(C(=O)NCCN2CCCCC2)c1,,,20,,
CCc1cccc(Oc2ccc(NS(C)(=O)=O)c(C(=O)N[C@H](C)c3ccccc3)c2)c1,17.9,51.1,,2.85,inhibition [3]: inactive
O=C(NCc1ccccc1)c1cc(Oc2cccc(Br)c2)ccc1NS(=O)(=O)c1ccc(F)c(F)c1,12.5,44.5,,3.56,
NC(=O)c1cc(Oc2cccc(Br)c2)ccc1NS(=O)(=O)c1cccc2cccnc12,,,27.5,,
C#C[C@@]1(O)[C@H](O)[C@@H](CO)O[C@H]1n1ccc2c(N)ncnc21,0.23,,,434,

# Second part, led by results:
EC50 [2] [µM],Compound,CC50 at 48 h [1] [µM],Activity [4] [%],selectivity ratio [5],also measured
3.9,CCCOc1ccc(NS(=O)(=O)c2cccc3cccnc23)c(C(=O)NCCCc2ccccc2)c1,> 100,,> 25.6,
5.6,CCCOc1ccc(NC(=O)c2cccc3cccnc23)c(C(=O)NCc2ccccc2)c1,> 100,,> 17,
8.7,CCCOc1ccc(NS(=O)(=O)c2cccc3cccnc23)c(C(=O)NC2CC2)c1,> 100,,> 11,
2.5,CCCOc1ccc(NS(=O)(=O)c2cccc3cccnc23)c(C(=O)NC2CCC2)c1,> 100,,> 40,
2.2,CCCOc1ccc(NS(=O)(=O)c2cccc3cccnc23)c(C(=O)NCCc2ccccc2)c1,> 100,,> 45.5,
1.9,CCCOc1ccc(NS(=O)(=O)c2cccc3cccnc23)c(C(=O)NC2CCCc3ccccc32)c1 (stereo not drawn),> 100,,> 52.6,
5.6,O=C(NCc1ccc(F)c(F)c1)c1cc(Oc2cccc(Br)c2)ccc1NS(=O)(=O)c1cccc2cccnc12,> 100,,> 17.8,
4.4,O=C(Nc1ccccc1)c1cc(Oc2cccc(Br)c2)ccc1NS(=O)(=O)c1cccc2cccnc12,64.7,,14.7,
3.9,O=C(NCc1ccccc1)c1cc(Oc2ccccc2)ccc1NS(=O)(=O)c1cccc2cccnc12,> 100,,> 25.4,
5.9,CCc1cccc(Oc2ccc(NS(=O)(=O)c3cccc4cccnc34)c(C(=O)NCc3ccc4c(c3)OCO4)c2)c1,> 100,,> 16.9,
7.3,O=C(NCc1ccccc1)c1cc(Oc2cccc(Br)c2)ccc1NS(=O)(=O)c1cccc2cccnc12,> 100,,> 13.6,
4.8,COc1ccc(NS(=O)(=O)c2cccc3cccnc23)c(C(=O)NCc2ccccc2)c1,> 100,,> 20.8,
2.2,CCCOc1ccc(NS(=O)(=O)c2cccc3cccnc23)c(C(=O)NC(CC)CC)c1,> 100,,> 45,
6.1,CCCOc1ccc(NS(=O)(=O)c2cccc3cccnc23)c(C(=O)N2CCc3ccccc3C2)c1,> 100,,> 16.4,
3,CCc1cccc(Oc2ccc(NS(=O)(=O)c3cccc4cccnc34)c(C(=O)NCc3ccccc3)c2)c1,> 100,,> 32.8,
